Patent publication US20240148821A1, “PHARMACEUTICAL USE OF CYCLIC PEPTIDE COMPOUND” (CHUGAI SEIYAKU KABUSHIKI KAISHA, priority 2021, published 2024)
Numbered stars: 1 amine (or outer) side, 2 acyl side, 3 side chain; on linkers, the order of the positions; unused ones are H or OH. Bridge positions count the residues as written; N and C are the ends. Square brackets hold non-standard residues; d marks the D form. Peptide text beside a SMILES is read from it. * marks the point of attachment. hPhe(3,5-F2-4-CF3) = N[C@@H](CCc1cc(F)c(C(F)(F)F)c(F)c1)C(=O)O; hPhe(3-Cl-4-CF3) = N[C@@H](CCc1ccc(C(F)(F)F)c(Cl)c1)C(=O)O; hPhe(3-F,4-CF3) = N[C@@H](CCc1ccc(C(F)(F)F)c(F)c1)C(=O)O; NMePhe(4-CF3) = CN[C@@H](Cc1ccc(C(F)(F)F)cc1)C(=O)O; hPhe(4-CF3) = N[C@@H](CCc1ccc(C(F)(F)F)cc1)C(=O)O; 3Oxa8azabicyclo(3.2.1)octane = C1CC2COCC1N2*; NMePhe(4-Cl) = CN[C@@H](Cc1ccc(Cl)cc1)C(=O)O; NMePhe(4-Me) = CN[C@@H](Cc1ccc(C)cc1)C(=O)O; NMedβ3hAla = C[C@H](CC(=O)[*:2])N(C)[*:1]; NMeNva(5,5-F2) = CN[C@@H](CCC(F)F)C(=O)O; NMeGly(cPent) = CN[C@H](C(=O)O)C1CCCC1; NMeCha = CN[C@@H](CC1CCCCC1)C(=O)O; Hyp = O=C(O)[C@@H]1C[C@@H](O)CN1; NMeI = CC[C@H](C)[C@H](NC)C(=O)O; NMeD = CN[C@@H](CC(=O)O)C(=O)O; NMeL = CN[C@@H](CC(C)C)C(=O)O; Ahp(2) = CCCCC[C@H](N)C(=O)O; NMeV = CN[C@H](C(=O)O)C(C)C; d(β3hA) = C[C@@H](N)CC(=O)O; NMeS = CN[C@@H](CO)C(=O)O; NMeA = CN[C@@H](C)C(=O)O; Piperidide = C1CCN(*)CC1; Pyrrolidide = C1CCN(*)C1; dNMeA = CN[C@H](C)C(=O)O; Ac5c = NC1(C(=O)O)CCCC1; Aze = O=C(O)[C@@H]1CCN1; Abu = CC[C@H](N)C(=O)O; Cyclopropyl = C1CC1*; Sar = CNCC(=O)O; Propyl = CCC*

What was measured:
[1] = biological target: protein-protein interaction between Kras and SOS1 (biotin-tagged human Kras loaded with GDP, His-tagged human SOS1) (Homo sapiens (Human), UniProt P01116, G12D); assay: Protein-protein interaction inhibition between Kras and SOS1 (KrasG12D-SOS PPI) using AlphaScreen; format: biochemical; conditions: AlphaScreen; biotin-tagged human Kras loaded with GDP, His-tagged human SOS1; read-out: KRAS G12D-SOS PPI IC50;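 further: kras produced in E. coli, Ni-coupled donor beads and streptavidin acceptor beads, excitation 680 nm with emission detected at 520–620 nm via singlet oxygen transfer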
[2] = tested on: Human pancreatic cancer cell line AsPC-1 (G12D mutation Kras); assay: AsPC-1 cell growth inhibition (AsPC-1 CGI); format: cell-based; conditions: read-out: AsPC-1 cell growth inhibition, 50% growth inhibitory concentration (IC50 value); 96 hours, CellTiter-Glo, values classified in ranges
Description: Test compounds were serially dilated with dimethyl sulfoxide, and 200 nL was then dispensed to a U-bottom 96-well plate using Labcyte Echo. […] The cell suspension was dispensed to a. plate containing a test compound at 100 μL per well and incubated at 37° C. in a 5% carbon dioxide gas incubator. 96 hours later, 80 μL of CellTiter-Glo (Promega) was added to each well and fluorescence was measured.

| Compound | IC50 [1] [nM] | IC50 [2] [nM] |
| --- | --- | --- |
| CC[C@H](C)[C@@H]1NC(=O)[C@H](CC(C)C)N(C)C(=O)C[C@@H](C)NC(=O)[C@H]([C@@H](C)CC)N(C)C(=O)C2(CCCC2)NC(=O)[C@@H]2CCCN2C(=O)[C@H](CCc2ccc(C(F)(F)F)c(Cl)c2)NC(=O)CN(C)C(=O)[C@H](Cc2ccc(C)cc2)N(C)C(=O)[C@@H]2CCN2C(=O)[C@H](C)N(C)C1=O [Compound 1661] (cyclo([Ac5c][NMeI][d(β3hA)][NMeL]I[NMeA][Aze][NMePhe(4-Me)][Sar][hPhe(3-Cl-4-CF3)]P)) | 2.7 | ≤ 20 |
| CC[C@H](C)[C@@H]1NC(=O)[C@H](CC(C)C)N(C)C(=O)C[C@@H](C)N(C)C(=O)[C@H](C(C)C)N(C)C(=O)C2(CCCC2)NC(=O)[C@@H]2CCCN2C(=O)[C@H](CCc2ccc(C(F)(F)F)c(Cl)c2)NC(=O)CN(C)C(=O)[C@H](Cc2ccc(C)cc2)N(C)C(=O)[C@@H]2CCN2C(=O)[C@H](C)N(C)C1=O [Compound 1809] (cyclo([Ac5c][NMeV][NMedβ3hAla][NMeL]I[NMeA][Aze][NMePhe(4-Me)][Sar][hPhe(3-Cl-4-CF3)]P)) | 1.4 | ≤ 20 |
| CCCCC[C@@H]1NC(=O)[C@H](CC(C)C)N(C)C(=O)C[C@@H](C(=O)N2CCCCC2)N(C)C(=O)[C@H](C(C)C)N(C)C(=O)C2(CCCC2)NC(=O)[C@@H]2CCCN2C(=O)[C@H](CCc2ccc(C(F)(F)F)c(Cl)c2)NC(=O)CN(C)C(=O)[C@H](CC2CCCCC2)N(C)C(=O)[C@@H]2CCN2C(=O)[C@H](C)N(C)C1=O [Compound 1826] ([NMeL][Ahp(2)][NMeA][Aze][NMeCha][Sar][hPhe(3-Cl-4-CF3)]P[Ac5c][NMeV][NMeD]-Piperidide; lactam N-11) | 99 | > 500 |
| CC[C@H](C)[C@@H]1NC(=O)[C@H](C)N(C)C(=O)C[C@@H](C)NC(=O)[C@H](C2CCCC2)N(C)C(=O)C2(CCCC2)NC(=O)[C@@H]2CCCN2C(=O)[C@H](CCc2ccc(C(F)(F)F)c(Cl)c2)NC(=O)[C@@H](C)N(C)C(=O)[C@H](Cc2ccc(Cl)cc2)N(C)C(=O)[C@@H]2CCN2C(=O)[C@H](C)N(C)C1=O [Compound 720] (cyclo([Ac5c][NMeGly(cPent)][d(β3hA)][NMeA]I[NMeA][Aze][NMePhe(4-Cl)][dNMeA][hPhe(3-Cl-4-CF3)]P)) | 39 | > 500 |
| CC[C@H](C)[C@@H]1NC(=O)[C@H](CC(C)C)N(C)C(=O)C[C@@H](C(=O)N2C3CCC2COC3)N(C)C(=O)[C@H](C2CCCC2)N(C)C(=O)C2(CCCC2)NC(=O)[C@@H]2CCCN2C(=O)[C@H](CCc2ccc(C(F)(F)F)c(Cl)c2)NC(=O)CN(C)C(=O)[C@H](Cc2ccc(C(F)(F)F)cc2)N(C)C(=O)[C@@H]2CCN2C(=O)[C@H](C)N(C)C1=O [Compound 422] ([NMeL]I[NMeA][Aze][NMePhe(4-CF3)][Sar][hPhe(3-Cl-4-CF3)]P[Ac5c][NMeGly(cPent)][NMeD]-{3Oxa8azabicyclo(3.2.1)octane}; lactam N-11) | 0.87 | ≤ 20 |
| CC[C@H](C)[C@@H]1NC(=O)[C@H](C)N(C)C(=O)C[C@@H](C(=O)N2CCCCC2)N(C)C(=O)[C@H](C(C)C)N(C)C(=O)C2(CCCC2)NC(=O)[C@H](Cc2ccc(Cl)cc2)N(C)C(=O)[C@H](CCc2ccc(C(F)(F)F)c(Cl)c2)NC(=O)CN(C)C(=O)[C@H](CC2CCCCC2)N(C)C(=O)CN(C)C(=O)CN(C)C1=O [Compound 718] ([NMeA]I[Sar][Sar][NMeCha][Sar][hPhe(3-Cl-4-CF3)][NMePhe(4-Cl)][Ac5c][NMeV][NMeD]-Piperidide; lactam N-11) | 39 | > 500 |
| CC[C@H](C)[C@@H]1NC(=O)[C@H](CC(C)C)N(C)C(=O)C[C@@H](C)N(C)C(=O)[C@H]([C@@H](C)CC)N(C)C(=O)C2(CCCC2)NC(=O)[C@@H]2CCCN2C(=O)[C@H](CCc2ccc(C(F)(F)F)c(F)c2)NC(=O)CN(C)C(=O)[C@H](Cc2ccc(C)cc2)N(C)C(=O)[C@@H]2CCN2C(=O)[C@H](C)N(C)C1=O [Compound 404] (cyclo([Ac5c][NMeI][NMedβ3hAla][NMeL]I[NMeA][Aze][NMePhe(4-Me)][Sar][hPhe(3-F,4-CF3)]P)) | 4.8 | ≤ 20 |
| CC[C@H](C)[C@@H]1NC(=O)[C@H](CC(C)C)N(C)C(=O)C[C@@H](C)N(C)C(=O)[C@H](C2CCCC2)N(C)C(=O)C2(CCCC2)NC(=O)[C@@H]2CCCN2C(=O)[C@H](CCc2ccc(C(F)(F)F)c(F)c2)NC(=O)CN(C)C(=O)[C@H](Cc2ccc(C)cc2)N(C)C(=O)[C@@H]2CCN2C(=O)[C@H](C)N(C)C1=O [Compound 481] (cyclo([Ac5c][NMeGly(cPent)][NMedβ3hAla][NMeL]I[NMeA][Aze][NMePhe(4-Me)][Sar][hPhe(3-F,4-CF3)]P)) | 2 | ≤ 20 |
| CCO[C@@H]1C[C@H]2C(=O)NC3(CCCC3)C(=O)N(C)[C@@H]([C@@H](C)CC)C(=O)N(C)[C@H](C)CC(=O)N(C)[C@@H](CC(C)C)C(=O)N[C@@H]([C@@H](C)CC)C(=O)N(C)CC(=O)N(C)CC(=O)N(C)[C@@H](Cc3ccc(C(F)(F)F)cc3)C(=O)N(C)CC(=O)N[C@@H](CCc3ccc(C(F)(F)F)c(Cl)c3)C(=O)N2C1 [Compound 695] (cyclo([Ac5c][NMeI][NMedβ3hAla][NMeL]I[Sar][Sar][NMePhe(4-CF3)][Sar][hPhe(3-Cl-4-CF3)][Hyp](Et))) | 2.3 | ≤ 20 |
| CC[C@@H]1NC(=O)[C@H](CC(C)C)N(C)C(=O)C[C@@H](C(=O)N2CCCCC2)N(C)C(=O)[C@H](C(C)C)N(C)C(=O)C2(CCCC2)NC(=O)[C@@H]2CCCN2C(=O)[C@H](CCc2ccc(C(F)(F)F)c(Cl)c2)NC(=O)CN(C)C(=O)[C@H](CC2CCCCC2)N(C)C(=O)[C@@H]2CCN2C(=O)[C@H](C)N(C)C1=O [Compound 1760] ([NMeL][Abu][NMeA][Aze][NMeCha][Sar][hPhe(3-Cl-4-CF3)]P[Ac5c][NMeV][NMeD]-Piperidide; lactam N-11) | 32 | > 500 |
| CC[C@H](C)[C@@H]1NC(=O)[C@H](CC(C)C)N(C)C(=O)C[C@@H](C(=O)N2CCCCC2)N(C)C(=O)[C@H](C(C)C)N(C)C(=O)C2(CCCC2)NC(=O)[C@@H]2CCCN2C(=O)[C@H](CCc2ccc(C(F)(F)F)c(Cl)c2)NC(=O)CN(C)C(=O)[C@H](CCC(F)F)N(C)C(=O)[C@@H]2CCN2C(=O)[C@H](C)N(C)C1=O [Compound 1769] ([NMeL]I[NMeA][Aze][NMeNva(5,5-F2)][Sar][hPhe(3-Cl-4-CF3)]P[Ac5c][NMeV][NMeD]-Piperidide; lactam N-11) | 11 | > 500 |
| CCCOC[C@H]1C(=O)N(C)CC(=O)N[C@@H](CCc2ccc(C(F)(F)F)c(Cl)c2)C(=O)N2CCC[C@H]2C(=O)NC2(CCCC2)C(=O)N(C)[C@@H]([C@@H](C)CC)C(=O)N(C)[C@H](C)CC(=O)N(C)[C@@H](CC(C)C)C(=O)N[C@@H]([C@@H](C)CC)C(=O)N(C)[C@@H](C)C(=O)N2CC[C@H]2C(=O)N1C [Compound 529] (cyclo([Ac5c][NMeI][NMedβ3hAla][NMeL]I[NMeA][Aze][NMeS](Propyl)[Sar][hPhe(3-Cl-4-CF3)]P)) | 8.2 | ≤ 20 |
| CC[C@H](C)[C@@H]1NC(=O)[C@H](CC(C)C)N(C)C(=O)C[C@@H](C(=O)N2CCCCC2)N(C)C(=O)[C@H](C(C)C)N(C)C(=O)C2(CCCC2)NC(=O)[C@H](C)N(C)C(=O)[C@H](CCc2ccc(C(F)(F)F)c(Cl)c2)NC(=O)CN(C)C(=O)[C@H](CC2CCCCC2)N(C)C(=O)CN(C)C(=O)CN(C)C1=O [Compound 939] ([NMeL]I[Sar][Sar][NMeCha][Sar][hPhe(3-Cl-4-CF3)][NMeA][Ac5c][NMeV][NMeD]-Piperidide; lactam N-11) | 8 | > 500 |
| CC(C)C[C@H]1C(=O)N[C@@H](COC2CC2)C(=O)N(C)[C@@H](C)C(=O)N2CC[C@H]2C(=O)N(C)[C@@H](CC2CCCCC2)C(=O)N(C)CC(=O)N[C@@H](CCc2ccc(C(F)(F)F)c(Cl)c2)C(=O)N2CCC[C@H]2C(=O)NC2(CCCC2)C(=O)N(C)[C@@H](C(C)C)C(=O)N(C)[C@H](C(=O)N2CCCCC2)CC(=O)N1C [Compound 1811] ([NMeL]S(Cyclopropyl)[NMeA][Aze][NMeCha][Sar][hPhe(3-Cl-4-CF3)]P[Ac5c][NMeV][NMeD]-Piperidide; lactam N-11) | 56 | > 500 |
| CC[C@H](C)[C@@H]1NC(=O)[C@H](C)N(C)C(=O)C[C@@H](C)NC(=O)[C@H](C2CCCC2)N(C)C(=O)C2(CCCC2)NC(=O)[C@@H]2CCCN2C(=O)[C@H](CCc2ccc(C(F)(F)F)c(Cl)c2)NC(=O)CN(C)C(=O)[C@H](CC2CCCCC2)N(C)C(=O)[C@@H]2CCN2C(=O)[C@H](C)N(C)C1=O [Compound 1491] (cyclo([Ac5c][NMeGly(cPent)][d(β3hA)][NMeA]I[NMeA][Aze][NMeCha][Sar][hPhe(3-Cl-4-CF3)]P)) | 3.7 | > 500 |
| CCO[C@@H]1C[C@H]2C(=O)NC3(CCCC3)C(=O)N(C)[C@@H]([C@@H](C)CC)C(=O)N(C)[C@H](C(=O)N3CCCC3)CC(=O)N(C)[C@@H](CC(C)C)C(=O)N[C@@H]([C@@H](C)CC)C(=O)N(C)[C@@H](C)C(=O)N3CC[C@H]3C(=O)N(C)[C@@H](Cc3ccc(C(F)(F)F)cc3)C(=O)N(C)CC(=O)N[C@@H](CCc3cc(F)c(C(F)(F)F)c(F)c3)C(=O)N2C1 [Compound 1210] ([NMeL]I[NMeA][Aze][NMePhe(4-CF3)][Sar][hPhe(3,5-F2-4-CF3)][Hyp](Et)[Ac5c][NMeI][NMeD]-Pyrrolidide; lactam N-11) | 0.74 | ≤ 20 |
| CC[C@H](C)[C@@H]1NC(=O)[C@H](C(C)C)N(C)C(=O)C[C@@H](C(=O)N2CCCC2)NC(=O)[C@H](CC(C)C)N(C)C(=O)C2(CCCC2)NC(=O)[C@H](CC(C)C)N(C)C(=O)[C@H](CCc2ccc(C(F)(F)F)cc2)NC(=O)CN(C)C(=O)[C@H](Cc2ccc(Cl)cc2)N(C)C(=O)CN(C)C(=O)CN(C)C1=O [Compound 769] ([NMeV]I[Sar][Sar][NMePhe(4-Cl)][Sar][hPhe(4-CF3)][NMeL][Ac5c][NMeL]D-Pyrrolidide; lactam N-11) | 52 | > 500 |
